Where a name gives a salt, the structure may show the parent alone.
| melting point [°C] | SMILES |
| --- | --- |
| 270 to 273 | N#C[C@@H]1CCCN1C(=O)CNC1CCC(Nc2ccc(C(F)(F)F)cn2)CC1 (some centres unmarked) (as salt: hydrochloride) |
| 108 to 110 | CC(C)(CNc1ncc(Cl)cc1Cl)NCC(=O)N1CCC[C@H]1C#N (as salt: hydrochloride) [Ex. 2F, 1-[[[2-[(3,5-dichloro-2-pyridinyl)amino]-1,1-dimethylethyl]amino]acetyl]-2-cyano-(S)-pyrrolidine] |
| 120 to 122 | N#C[C@@H]1CCCN1C(=O)CN[C@H]1CC[C@H](Oc2cccc(C(F)(F)F)c2)CC1 (as salt: hydrochloride) [Ex. 2GG, 1-[[[4-[(3-trifluoromethyl)phenoxy]cyclohexyl]amino]acetyl]-2-cyano-(S)-pyrrolidine] |
| 225 to 227 | CC(C)(CNC(=O)C(C)(C)C)NCC(=O)N1CCC[C@H]1C#N (as salt: hydrochloride) [Ex. 2H, 1-[[[2-[(2,2-dimethyl-1-oxopropyl)amino]-1,1-dimethylethyl]amino]acetyl]-2-cyano-(S)-pyrrolidine] |
| 72 to 74 | N#C[C@@H]1CCCN1C(=O)CN[C@H]1CC[C@H](Oc2cccc(Cl)c2)CC1 (as salt: hydrochloride) [Ex. 2HH] |
| 172 to 174 | N#C[C@@H]1CCCN1C(=O)CNC1CCN(C(=O)Nc2ccc(Cl)cc2)CC1 (as salt: hydrochloride) [Ex. 2II, 1-[[[1-[[(4-chlorophenyl)amino]carbonyl]-4-piperidinyl]amino]acetyl]-2-cyano-(S)-pyrrolidine] |
| 128 to 130 | CC(C)N(C(=O)NCC(C)(C)NCC(=O)N1CCC[C@H]1C#N)C(C)C (as salt: hydrochloride) [Ex. 2J, 1-[[[2-[[(diisopropylamino)carbonyl]amino]-1,1-dimethylethyl]amino]acetyl]-2-cyano-(S)-pyrrolidine] |
| 160 to 162 | N#C[C@@H]1CCCN1C(=O)CNC1CCN(c2nc(-c3ccc(Cl)cc3)cs2)CC1 (as salt: hydrochloride) [Ex. 2LL] |
| 120 to 122 | N#C[C@@H]1CCCN1C(=O)CNC1CCC(NS(=O)(=O)c2ccccc2)CC1 (stereo partly drawn) (as salt: hydrochloride) [Ex. 2M, 1-[[[4-[(phenylsulfonyl)amino]cyclohexyl]amino]acetyl]-2-cyano-(S)-pyrrolidine] |
| 154 to 156 | COc1ccc(-c2csc(N3CCC(NCC(=O)N4CCC[C@H]4C#N)CC3)n2)cc1 (as salt: hydrochloride) [Ex. 2MM] |
| 289 to 292 | N#C[C@@H]1CCCN1C(=O)CN[C@H]1CC[C@H](Nc2ncccc2C(F)(F)F)CC1 (as salt: hydrochloride) [Ex. 2P, 1-[[4-[[(3-trifluoromethyl-2-pyridinyl)amino]cyclohexyl]amino]acetyl]-2-cyano-(S)-pyrrolidine] |
| 260 to 263 | N#C[C@@H]1CCCN1C(=O)CN[C@H]1CC[C@H](NC(=O)c2ccc(Cl)cc2)CC1 (as salt: hydrochloride) [Ex. 2T, 1-[[[4-[(4-chlorobenzoyl)amino]cyclohexyl]amino]acetyl]-2-cyano-, (S)-pyrrolidine] |
| 165 to 167 | N#Cc1ccc(NC2CCC(NCC(=O)N3CCC[C@H]3C#N)CC2)cc1 (stereo partly drawn) (as salt: hydrochloride) [Ex. 2W, 1-[[[4-[(4-cyanophenyl)amino]cyclohexyl]amino]acetyl]-2-cyano-(S)-pyrrolidine] |
| 189 to 190 | N#C[C@@H]1CCCN1C(=O)CNC1CCC(NC(=O)C2CCCCC2)CC1 (stereo partly drawn) (as salt: hydrochloride) [Ex. 2X, 1-[[[4-[(cyclohexylcarbonyl)amino]cyclohexyl]amino]acetyl]-2-cyano-(S)-pyrrolidine] |
| 135 to 137 | N#C[C@@H]1CCCN1C(=O)CN[C@H]1CC[C@H](NS(=O)(=O)c2ccc(C(F)(F)F)cc2)CC1 (as salt: hydrochloride) [Ex. 2Z, 1-[[[4-[[[(4-trifluoromethyl)phenyl]sulfonyl]amino]cyclohexyl]amino]acetyl]-2-cyano-(S)-pyrrolidine] |
| > 300 | N#C[C@@H]1CCCN1C(=O)CNC1CCN(C(=O)C2CCCCC2)CC1 (as salt: hydrochloride) [Ex. 4A, 1-[[[1-(cyclohexylcarbonyl)-4-piperidinyl]amino]acetyl]-2-cyano-(S)-pyrrolidine] |
| 152 to 155 | N#C[C@@H]1CCCN1C(=O)CNC1CCN(C(=O)c2ccc(Cl)cc2)CC1 (as salt: hydrochloride) [Ex. 4B] |
| 47 to 49 | CC(C)(CNc1ccc(C#N)cn1)NCC(=O)N1CCC[C@H]1C#N [Ex. 2A, 1-[[[2-[(5-cyano-2-pyridinyl)amino]-1,1-dimethylethyl]amino]acetyl]-2-cyano-(S)-pyrrolidine] |

More lines, now with the values behind:

| SMILES | melting point [°C] |
| --- | --- |
| N#C[C@@H]1CCCN1C(=O)CN[C@H]1CC[C@H](NS(=O)(=O)c2cccs2)CC1 (as salt: hydrochloride) [Ex. 2AA] | 75 to 77 |
| CC(C)(CNc1ccc(C(F)(F)F)cn1)NCC(=O)N1CCC[C@H]1C#N (as salt: hydrochloride) [Ex. 2B, 1-[[[2-[(5-trifluoromethyl-2-pyridinyl)amino]-1,1-dimethylethyl]amino]acetyl]-2-cyano-(S)-pyrrolidine] | 170 to 172 |
| CC(C)(Cc1ccc(F)cc1)NCC(=O)N1CCC[C@H]1C#N (as salt: hydrochloride) [Ex. 2BB] | 198 to 200 |
| CC(C)(Cc1ccccc1)NCC(=O)N1CCC[C@H]1C#N (as salt: hydrochloride) [Ex. 2CC, 1-[[(1,1-dimethyl-2-phenylethyl)amino]acetyl]-2-cyano-(S)-pyrrolidine] | 212 to 214 |
| CC(C)(CNc1ncccc1Cl)NCC(=O)N1CCC[C@H]1C#N (as salt: hydrochloride) [Ex. 2D, 1-[[[2-[(3-chloro-2-pyridinyl)amino]-1,1-dimethylethyl]amino]acetyl]-2-cyano-(S)-pyrrolidine] | 144 to 146 |
| CCCCCC12CCC(NCC(=O)N3CCC[C@H]3C#N)(CC1)CC2 (as salt: hydrochloride) [Ex. 2DD, 1-[[(4-pentylbicyclo[2.2.2]oct-1-yl)amino]acetyl]-2-cyano-(S)-pyrrolidine] | 99 to 102 |
| N#CC1CCCN1C(=O)CNC1CCC(Oc2ccc(Cl)cc2)CC1 (as salt: hydrochloride) [Ex. 2FF, 1-[[4-[4-chlorophenoxy)cyclohexyl]amino]acetyl]-2-cyano-(S)-pyrrolidine] | 232 to 235 |
| CC(C)(CNc1ncccc1C(F)(F)F)NCC(=O)N1CCC[C@H]1C#N (as salt: hydrochloride) [Ex. 2G, 1-[[[2-[(3-trifluoromethyl-2-pyridinyl)amino]-1,1-dimethylethyl]amino]acetyl]-2-cyano-(S)-pyrrolidine] | 112 to 114 |
| CC(C)(CNC(=O)c1ccc(Cl)cc1)NCC(=O)N1CCC[C@H]1C#N (as salt: hydrochloride) [Ex. 2I, 1-[[[2-[(4-chlorobenzoyl)amino]-1,1-dimethylethyl]amino]acetyl]-2-cyano-(S)-pyrrolidine] | 121 to 123 |
| CC(C)N(C(=O)N1CCC(NCC(=O)N2CCC[C@H]2C#N)CC1)C(C)C (as salt: hydrochloride) [Ex. 2JJ, 1-[[[1-[(diisopropylamino)carbonyl]-4-piperidinyl]amino]acetyl]-2-cyano-(S)-pyrrolidine] | 82 to 84 |
| CC(C)(CNC(=O)Nc1ccc(Cl)cc1)NCC(=O)N1CCC[C@H]1C#N (as salt: hydrochloride) [Ex. 2K, 1-[[[2-[[[(4-chlorophenyl)amino]carbonyl]amino]-1,1-dimethylethyl]amino]acetyl]-2-cyano-(S)-pyrrolidine] | 112 to 114 |
| N#Cc1ccc(NC2CCC(NCC(=O)N3CCC[C@H]3C#N)CC2)nc1 (stereo partly drawn) (as salt: hydrochloride) [Ex. 2L, 1-[[[4-[(5-cyano-2-pyridinyl)amino]cyclohexyl]amino]acetyl]-2-cyano-(S)-pyrrolidine] | 242 to 244 |
| N#C[C@@H]1CCCN1C(=O)CN[C@H]1CC[C@H](NS(=O)(=O)c2ccc(Cl)cc2)CC1 (as salt: hydrochloride) [Ex. 2Q, 1-[[[[4-[(4-chlorophenyl)sulfonyl]amino]cyclohexyl]amino]acetyl]-2-cyano-(S)-pyrrolidine] | 160 to 162 |
| N#C[C@@H]1CCCN1C(=O)CNC1CCC(Nc2ccnc(Cl)n2)CC1 (stereo partly drawn) (as salt: hydrochloride) [Ex. 2S, 1-[[[4-[(2-chloro-4-pyrimidinyl)amino]cyclohexyl]amino]acetyl]-2-cyano-(S)-pyrrolidine] | 290 to 293 |
| CC(C)(C)C(=O)NC1CCC(NCC(=O)N2CCC[C@H]2C#N)CC1 (stereo partly drawn) (as salt: hydrochloride) [Ex. 2U, 1-[[[4-[(2,2-dimethyl-1-oxopropyl)amino]cyclohexyl]amino]acetyl]-2-cyano-(S)-pyrrolidine] | 290 to 294 |
| N#C[C@@H]1CCCN1C(=O)CNC1CCC(Nc2nc3ccccc3s2)CC1 (stereo partly drawn) (as salt: hydrochloride) [Ex. 2V, 1-[[[4-[(2-benzothiazolyl)amino]cyclohexyl]amino]acetyl]-2-cyano-(S)-pyrrolidine] | 246 to 248 |
| N#C[C@@H]1CCCN1C(=O)CNC1CCC(Nc2nc3cc(Cl)ccc3s2)CC1 (stereo partly drawn) (as salt: hydrochloride) [Ex. 2Y, 1-[[[4-[(5-chloro-2-benzothiazolyl)amino]cyclohexyl]amino]acetyl]-2-cyano-(S)-pyrrolidine] | 290 to 294 |
| N#C[C@@H]1CCCN1C(=O)CNC1CCN(S(=O)(=O)c2ccc(C(F)(F)F)cc2)CC1 (as salt: hydrochloride) [Ex. 4C] | > 300 |
| N#C[C@@H]1CCCN1C(=O)CNC1CCN(S(=O)(=O)c2ccccc2)CC1 (as salt: hydrochloride) [Ex. 4D, 1-[[(1-phenylsulfonyl-4-piperidinyl)amino]acetyl]-2-cyano-(S)-pyrrolidine] | > 300 |
| N#C[C@@H]1CCCN1C(=O)CNC1CCC(NC(=O)c2ccccc2)CC1 (stereo partly drawn) [Ex. 2N, 1-[[[4-(benzoylamino)cyclohexyl]amino]acetyl]-2-cyano-(S)-pyrrolidine] | 78 to 80 |

Reference: patent US6432969B1, “N-(substituted glycyl)-2 cyanopyrrolidines, pharmaceutical compositions containing them and their use in inhibiting dipeptidyl peptidase-IV” (Novartis AG, priority 2000, dated 2002)
